This is an account of results in patent publication US11608380B2, “Anti-EGFRvIII antibodies and uses thereof” (REGENERON PHARMACEUTICALS, INC., priority 2014, dated 2023).

Test [1] deals with MMT. Put plainly: Cell viability (CCK8) cell kill assay. It is filed as cell-based. As to the method:
(§1) Next, the ability of anti-human EGFRvIII antibodies conjugated to the maytansine toxin DM1 to reduce cell viability was determined using in vitro cell based assays. Cells were seeded in PDL-coated 96 well plates at 250-2000 cells per well in complete growth media and allowed to grow overnight. For cell viability curves, ADCs or free drug (DM1-SMe) was added to cells at final concentrations ranging from 500 nM to 5 μM and incubated for 3 days. Cells were incubated with CCK8 (Dojindo) for the final 1-3 h and the absorbance at 450 nm (OD450) was determined on the Flexstation3 (Molecular Devices). Background OD450 levels from digitonin (40 nM) treated cells was subtracted from all wells and viability is expressed as a percentage of the untreated controls. IC50 values were determined from a four-parameter logistic equation over a 10-point response curve (Graph Pad Prism). IC50 values are in nM and are normalized for the particular drug/antibody ratio (DAR).

The test system of test [2] is HEK293. In words: Cell viability (CCK8) cell kill assay. It is filed as cell-based. The procedure: as §1
Test [3] concerns U251. Put plainly: Cell viability (CCK8) cell kill assay. The settings on record: Table 18A. It is filed as cell-based. The procedure:
as §1

The test system of test [4] is HEK293/hEGFRwt. Put plainly: Cell viability (CCK8) cell kill assay. The test is classed as cell-based, human. To be noted: Table 18A. The procedure: (§2) All cells were generated via lipofectamine 2000 based methodologies and were cultured in complete growth media in the presence of G418.
as §1, with “Cells were incubated with CCK8 (Dojindo) for the final 1-3 h and the absorbance at 450 nm (OD450) was determined on the Flexstation3 (Molecular Devices).” left out

Test [5] has as its system U251/hEGFRvIII. Put plainly: Cell viability (CCK8) cell kill assay. It is filed as cell-based, human. To be noted: Table 18B. As to the method:
as §2
as §1, with “Cells were incubated with CCK8 (Dojindo) for the final 1-3 h and the absorbance at 450 nm (OD450) was determined on the Flexstation3 (Molecular Devices).” left out

In test [6] the test system is HEK293/hEGFRvIII. Put plainly: Cell viability (CCK8) cell kill assay. It is filed as cell-based, human. As to the method:
as §2
as §1, with “Cells were incubated with CCK8 (Dojindo) for the final 1-3 h and the absorbance at 450 nm (OD450) was determined on the Flexstation3 (Molecular Devices).” left out

The subject of test [7] is MMT/hEGFRvIII. In words: Cell viability (CCK8) cell kill assay. It is filed as cell-based, human. As to the method: as §2
as §1, with “Cells were incubated with CCK8 (Dojindo) for the final 1-3 h and the absorbance at 450 nm (OD450) was determined on the Flexstation3 (Molecular Devices).” left out

For test [8], the system named is N-term Biotin control peptide. Put plainly: Antibody specificity by ELISA. To be noted: ELISA binding, irrelevant peptide with N-terminal biotin. The procedure:
(§3) To further characterize anti-hEGFRvIII mAbs, their binding specificity was examined by ELISA. […] For the junctional peptides that were linked to biotin either at C-terminal (SEQ ID NO:149) or N-terminal (SEQ ID NO:150) via a linker, plates were pre-coated with avidin. Also, coated was an irrelevant peptide (control peptide) with or without biotin at its N-terminal. Anti-EGFRvIII antibodies as well as an isotype control antibody were added to coated plates and allowed to incubate for 1 hour at 25° C. The plates were then washed and bound anti-EGFRvIII mAbs were detected with anti-human Fc antibodies conjugated with horse-radish peroxidase (HRP). Plates were developed with a tetra-methyl-benzidine (TMB) substrate solution to produce a colorimetric reaction and neutralized with sulfuric acid before reading absorbance at 450 nm on a VICTOR™ X5 plate reader. Data analysis used a sigmoidal dose-response model within PRISM™ software. […] NT: Not tested. Controls I-III: As described above.
In general terms: ELISA stands for enzyme-linked immunosorbent assay.

Test [9] concerns Control peptide. In words: Antibody specificity by ELISA. To be noted: ELISA binding, irrelevant peptide. As to the method: as §3
Test [10] has as its system EGFRvIII-mFc. It is filed as binding, human. As to the method:
(§4) Measurements were conducted on a T100 BIACORE™ instrument. […] In the receptor-capture format, either EGFRvIII-mFc or EGFR-mFc, was captured on the BIACORE™ chip and the respective antibodies flowed over. Kinetic association (ka) and dissociation (kd) rate constants were determined by processing and fitting the data to a 1:1 binding model using Scrubber 2.0 curve fitting software. Binding dissociation equilibrium constants (KD) and dissociative half-lives (t1/2) were calculated from the kinetic rate constants as: KD (M)=kd/ka; and t1/2 (min)=ln 2/(60*kd).

The target of test [11] is EGFR-mFc (Homo sapiens, UniProt P00533). In words: SPR (BIACORE) binding kinetics, receptor-capture format. The settings on record: 37° C., EGFR-mFc captured, NB=no binding. As to the method: as §4
Test [12] concerns HEK293 cells. In words: FACS cell binding selectivity. To be noted: directly labeled (ALEXA FLUOR 488) antibodies, 10 μg/ml. It is filed as cell-based. As to the method: To determine the specificity of the anti-EGFRvIII mAbs, their binding to HEK293, HEK293 cells expressing EGFRvIII (HEK293/EGFRvIII) and A431 cells, was analyzed by fluorescence activated cell sorting (FACS). HEK293/EGFRvIII cells were prepared by transfecting HEK293 cells with neomycin resistant DNA vectors constitutively expressing full-length hEGFRvIII (SEQ ID NO:147) using LIPOFECTAMINE™ 2000 transfection reagent (INVITROGEN™). At two days post-transfection, cells were placed under G418 selection for approximately two weeks. Populations positively expressing EGFRvIII were isolated via fluorescence activated cell sorting (FACS). The HEK293 cells expressing ˜3×10^6 copies of EGFRvIII per cell were used in the experiment. Briefly, the anti-EGFRvIII antibodies at 10 μg/ml were incubated with cells for 30 minutes at room temperature, washed, incubated with secondary antibody, i.e., phycoerythrin (PE)-labeled goat F(ab′)2 against human IgG (cat #109-116-170, Jackson ImmunoResearch Laboratories), followed by a final wash before FACS analysis. In another set of experiment, anti-EGFRvIII antibodies were directly conjugated via their lysine residues with the fluorescent dye, ALEXA FLUOR® 488 Dye (INVITROGEN™), thereby eliminating the step using the secondary antibody. […] Controls I, II, III, IV and V are described above. MFI: Mean Fluorescence Intensity.

In test [13] the target is EGFRvIII-mmh (Homo sapiens, UniProt P00533, DELINS30-297G). Put plainly: Antibody specificity by ELISA. The settings on record: ELISA binding, plate coated with EGFRvIII-mmh. As to the method: (§5) To further characterize anti-hEGFRvIII mAbs, their binding specificity was examined by ELISA. […] For the junctional peptides that were linked to biotin either at C-terminal (SEQ ID NO:149) or N-terminal (SEQ ID NO:150) via a linker, plates were pre-coated with avidin. Also, coated was an irrelevant peptide (control peptide) with or without biotin at its N-terminal. Anti-EGFRvIII antibodies as well as an isotype control antibody were added to coated plates and allowed to incubate for 1 hour at 25° C. The plates were then washed and bound anti-EGFRvIII mAbs were detected with anti-human Fc antibodies conjugated with horse-radish peroxidase (HRP). […] Data analysis used a sigmoidal dose-response model within PRISM™ software.

The target of test [14] is EGFR-mmh (Homo sapiens, UniProt P00533). In words: Antibody specificity by ELISA. The settings on record: read-out: EC50 EGFR-mmh (25° C.), ELISA binding, plate coated with EGFR-mmh. As to the method: as §5
Test [15] addresses C-term biotin J-peptide (Homo sapiens, UniProt P00533, DELINS30-297G). Put plainly: Antibody specificity by ELISA. To be noted: ELISA binding, avidin pre-coated plates. The procedure: as §5
In test [16] the target is junctional peptide (J-peptide) (Homo sapiens, UniProt P00533, DELINS30-297G). Put plainly: Antibody specificity by ELISA. To be noted: ELISA binding. As to the method: as §5
The target in test [17] is N-term biotin J-peptide (Homo sapiens, UniProt P00533, DELINS30-297G). In words: Antibody specificity by ELISA. To be noted: ELISA binding, avidin pre-coated plates. As to the method: as §5
The mark [18] stands for this setting: Table 20, MMT, single ADC or 1:1 pairwise combination.
The mark [19] stands for this setting: Table 20, HEK293, single ADC or 1:1 pairwise combination.
Where [20] appears, read: Table 19, HEK293/hEGFRvIII (high).
The mark [21] stands for this setting: Table 20, HEK293/hEGFRvIII, single ADC or 1:1 pairwise combination.
Setting [22] is: Table 20, MMT/hEGFRvIII, single ADC or 1:1 pairwise combination.
Setting [23] is: 37° C., receptor-capture, EGFRvIII-mFc captured.

The term IC50 denotes the concentration that inhibits the measured activity by half. For orientation: EC50 means the concentration that produces a half-maximal response.

Regarding DM1-SMe, the “% Kill” value in test [1] (Table 18B, MMT) was determined as 96%; in [1] (Table 19, MMT), 100%; in [1] (setting [18]) it was 100%; in test [2] (Table 18A, HEK293) it was 97%; in [2] (Table 19, HEK293), 98%; in test [2] (setting [19]), 96%. Moreover, the “% Kill” value in test [3] (U251) was determined as 81%; in test [4], 95%; in test [5] it was 83%; in test [6] (Table 18A, HEK293/hEGFRvIII), 99%; in test [6] (setting [20]) it was 99%; in test [6] (setting [21]) it was 97%. In addition, the “% Kill” value in [7] (Table 18B, MMT/hEGFRvIII) came out at 100%; in test [7] (Table 19, MMT/hEGFRvIII (high)) it was 99%; in test [7] (setting [22]) it was 100%. Also, the IC50 is 0.6 nM in test [1] (Table 18B, MMT, 3 days, normalized for DAR); 0.15 nM in test [1] (Table 19, MMT); 0.19 nM in test [1] (setting [18]); 0.31 nM in test [2] (Table 18A, HEK293, 3 days, normalized for DAR); 0.19 nM in test [2] (Table 19, HEK293); 0.21 nM in [2] (setting [19]). Besides, the IC50 in [3] (U251, 3 days, normalized for DAR) was found to be 1.8 nM; in test [4] (3 days, normalized for DAR) it was 0.57 nM; in test [5] (3 days, normalized for DAR), 1.2 nM; in test [6] (Table 18A, HEK293/hEGFRvIII, 3 days, normalized for DAR) it was 0.6 nM; in test [6] (setting [20]) it was 0.25 nM; in test [6] (setting [21]) it was 0.28 nM. Also, the concentration for half-maximal inhibition (IC50) in test [7] (Table 18B, MMT/hEGFRvIII, 3 days, normalized for DAR) was 0.7 nM; in test [7] (Table 19, MMT/hEGFRvIII (high)) it was 0.18 nM; in [7] (setting [22]), 0.19 nM.

B1: H1H1915N: human IgG1 Fc anti-EGFRvIII antibody with variable domains 1915; HCVR/LCVR SEQ ID NOs 82/90 (antibody, V domains shown)
VH: QVQLVESGGGVVQPGRSLRLSCAASGFTFSAYAMHWVRQAPGKGLEWVAVIWYDGSNKNYADSVKGRFTVSRDNSKNTLYLEMNSLRAEDTAVYYCARDLMVGVTNYWGQGTLVTVST
VL: DVVMTQSPLSLPVALGQPASISCRSSQSLVYTDGNTYLNWFHQRPGQSPRRLIYKVSNRDSGVPDRFTGSGSGTDFTLKISRVEAEDVGVFYCMQGSHWPPYTFGQGTKLEIK
modifications: human IgG1 Fc
In the case of B1, the EC50 in test [8], in test [9], in test [14], in test [15], in [16] and in test [17] was greater than 10 nM each time. Moreover, the ka in test [10] (setting [23]) worked out at 100000 M⁻¹ s⁻¹; in [11] it was 43500 M⁻¹ s⁻¹. For the same molecule, the kd in [10] (setting [23]) was 0.000328 s⁻¹; in [11], 0.00801 s⁻¹. In addition, the “selectivity for EGFRvIII over wild-type EGFR” value in test [10] (receptor capture format (Table 4)) is “greatest selectivity”. Moreover, the “Parental HEK293 MFI” value in [12] is given as 3461. Besides, the “EC50 EGFRvIII-mmh (25° C.)” value in test [13] is reported as “strong binding”.
